According to publication PMC6376154 (International Journal for Parasitology: Drugs and Drug …, 2019):
Where two headings read alike, the source gives them in different places.

Tests used:
[1] = system: F100TpM, a bovine lymphocyte cell line infected by T. parva; assay: 3H-thymidine incorporation growth assay on F100TpM cells (screen at 1 μM and IC50 titration); details: for TI (CC50/IC50), therapeutic index: CC50 on Con A blasts divided by IC50 on F100TpM;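 as to all read-outs here: growth inhibition compared against wells lacking compound, run in triplicate, and CC50 derived from 3H-thymidine uptake by PBMC stimulated with ConA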
Experimental: (§1) All the MMV compounds were initially tested for inhibitory activity on the growth of F100TpM, a bovine lymphocyte cell line infected by T. parva. […] All compounds were tested in triplicate.
(§2) The radiolabeled precursor ^3H-thymidine is incorporated into DNA strands during cell replication and radioisotope incorporation is often used as a measure of cell proliferation.
(§3) IC50 values were calculated using the Graph Pad Prism 7 software (GraphPad Software, Inc., La Jolla, CA), and average values of radio-isotope incorporation in wells with and without compound on the growth of F100TpM cells. The CC50 values were calculated using ^3H-thymidine incorporation values determined on the growth of PBMC stimulated with ConA. The therapeutic index of a compound was calculated by dividing the CC50 value with the IC50 value.

[2] = 3H-thymidine incorporation toxicity assay on ConA-stimulated uninfected bovine PBMC (CC50); details: bovine
Experimental: as §1, §2, §3

in vitro = details: bovine, CC50 (μM) Con A blasts
Experimental: as §1, §2, §3

[3] = system: P. falciparum 3D7 asexual blood stage; details: cited from earlier work; for % inh. At 2.5 uM: given in Comment because of solubility issue at 5 uM
Trypanosoma cruzi = system: Trypanosoma cruzi; set-up: method as in Van Voorhis et al., 2016; details: at 5 μM; ref Van Voorhis et al., 2016; cited from earlier work
[4] = system: Plasmodium berghei ookinete; set-up: method as in Van Voorhis et al., 2016; details: at 10 μM; ref Van Voorhis et al., 2016; cited from earlier work
[5] = system: bovine PBMC stimulated with ConA (Con A blasts); assay: 3H-thymidine incorporation toxicity assay on ConA-stimulated uninfected bovine PBMC (CC50); details: read-out: CC50 (μM) Con A blasts; uninfected bovine PBMC stimulated with ConA, 48 h compound, 3H-thymidine incorporation
Experimental: as §1, §2, §3

[6] = system: P. falciparum gametocyte NF54-late stage; set-up: method as in Van Voorhis et al., 2016; details: at 5 μM; ref Van Voorhis et al., 2016; cited from earlier work
U87 = system: U87; set-up: method as in Van Voorhis et al., 2016; details: at 5 μM; only one of nine cell lines tested; ref Van Voorhis et al., 2016; cited from earlier work
[7] = set-up: method as in MMV data sheets; details: at 5 uM; ref MMV data sheets; cited from earlier work
[8] = system: bovine PBMC stimulated with ConA (Con A blasts)
Experimental: as §1, §2, §3

[9] = system: Theileria annulata infected cell lines; set-up: method as in Hostettler et al., 2016; details: ref Hostettler et al., 2016; cited from earlier work
T. annulata gene TaSP = system: T. annulata gene TaSP; set-up: method as in Hostettler et al., 2016; details: ref Hostettler et al., 2016; cited from earlier work
[10] = system: human foreskin fibroblast control cells; set-up: method as in Hostettler et al., 2016; details: T. annulata assay; ref Hostettler et al., 2016; cited from earlier work
[11] = Bos taurus, Lymphocyte, read-out: IC50 (μM) F100TpM, T. parva infected lymphocyte cell line, 48 h compound, 3H-thymidine incorporation
[12] = uninfected bovine PBMC stimulated with ConA (Con A blasts), CC50 (μM) Con A blasts, uninfected bovine PBMC stimulated with ConA, 48 h compound, 3H-thymidine incorporation
[13] = MMV Malaria Box sheet, ref MMV data sheets, read-out: EC50_nM
[14] = source StJude, ref ChEMBL_NTD, read-out: CHEMBL EC50
[15] = read-out: IC50 (μM) F100TpM, T. parva infected lymphocyte cell line, 48 h compound, 3H-thymidine incorporation
[16] = MMV Malaria Box data sheet, ref MMV data sheets
[17] = MMV Malaria Box data sheet, ref MMV data sheets, read-out: EC50_nM
[18] = source GNF, ref ChEMBL_NTD, read-out: CHEMBL EC50
[19] = source GSK, ref ChEMBL_NTD, read-out: CHEMBL EC50
[20] = ChEMBL-NTD value per source (GNF, GSK, StJude), several values in a cell follow the order of the sources, read-out: CHEMBL EC50
[21] = MMV Malaria Box sheet, ref MMV data sheets

CC(C)(C)[C@H]1CC[C@H](CC2=C(O)C(=O)c3ccccc3C2=O)CC1 [Buparvaquone, reference compound]
IC50 [1, 11]: 0.0042 µM
TI (CC50/IC50), therapeutic index [1]: >2380
TI (CC50/IC50), therapeutic index ([1]; listed as buparvaquone): more than 2000
CC50 at 48 h [2, 12]: > 10 µM

Cc1nc(Nc2ncc(C(=O)Nc3c(C)cccc3Cl)s2)cc(N2CCN(CCO)CC2)n1 [Dasatinib, dasatinib, reference compound]
TI (CC50/IC50), therapeutic index [1]: > 2000
CC50 at 48 h (in vitro): > 10 µM

Oc1ccc(Br)cc1CN1CCN(Cc2cccc(F)c2)CC1 [MMV000356]
IC50 ([1]; Bos taurus, Lymphocyte, read-out: IC50 (μM) F100TpM): 0.87 µM
TI (CC50/IC50), therapeutic index [1]: 0.99
EC50 [3, 13]: 1030 nM
EC50 [3, 14]: 1400 nM
CC50 at 48 h [2]: 0.86 µM

COC(=O)Nc1nc2ccc(C(=O)c3ccccc3)cc2[nH]1 [MMV003152, Mebendazole, reference compound]
TI (CC50/IC50), therapeutic index [1]: <0.001
IC50 [1, 15]: 0.36 µM
IC50 ([1]; read-out: IC50 (μM) F100TpM, T. parva infected lymphocyte cell line, 48 h compound, 3H-thymidine incorporation, listed as mebendazole): < 1 µM
CC50 at 48 h (in vitro): < 0.001 µM

CCCN(CCC)CC(O)COc1ccccc1C(=O)Nc1ccccc1 (stereo not drawn) [MMV006455]
IC50 [1, 11]: 0.84 µM
TI (CC50/IC50), therapeutic index [1]: 1.07
percent_inh @ 5 uM [3, 16]: 98%
EC50 [3, 17]: 196 nM
EC50 [3, 18]: 365 nM
EC50 [3, 19]: 799 nM
CC50 at 48 h [2, 12]: 0.9 µM

COc1cc(-c2nc(-c3ccc(Sc4ccccc4)cc3)c(-c3ccccc3)[nH]2)cc(OC)c1O [MMV007273]
IC50 [1, 11]: 0.04 µM
TI (CC50/IC50), therapeutic index [1]: 1.5
EC50 [3, 20]: 1280 nM
CC50 at 48 h [2, 12]: 0.06 µM

Clc1ccc2c(N3CCCC3)ccnc2c1 [MMV007363]
IC50 [1, 11]: 1.93 µM
TI (CC50/IC50), therapeutic index [1]: 0.56
percent_inh @ 5 uM [3, 21]: 97%
EC50 [3, 13]: 944 nM
EC50 [3, 18]: 283 nM
CC50 at 48 h [2, 12]: 1.09 µM

COc1ccc2nc(C)cc(Nc3cccc(O)c3)c2c1 [MMV008212]
growth inhibition of Trypanosoma cruzi (Trypanosoma cruzi): 100%
IC50 [1, 11]: 0.78 µM
TI (CC50/IC50), therapeutic index [1]: >12
percent_inh @ 5 uM [3, 21]: 98%
EC50 [3, 13]: 969 nM
growth inhibition of P. falciparum 3D7 asexual blood stage ([3]; at 5 μM, ref Van Voorhis et al., 2016): 98%
EC50 [3, 18]: 228 nM
growth inhibition of Plasmodium berghei ookinete [4]: 76%
CC50 [5]: > 10 µM
CC50 at 48 h [2, 12]: > 5 µM
growth inhibition of P. falciparum gametocyte NF54-late stage [6]: 91%
cell death, U87 cell line (U87): 76%

COc1ccc(-c2nonc2NC(=O)c2cccc(Cl)c2)cc1OC [MMV020660]
% inh. At 2.5 uM ([3]; ref MMV data sheets): 97%
EC50 [3, 19]: 876 nM
Comment: solubility [7]: Solubility issue at 5 uM

COc1ccc(-c2cnc3ccc(N4CCCC4)nn23)cc1OC [MMV023985]
TI (CC50/IC50), therapeutic index [1]: <0.001
IC50 [1, 15]: 0.52 µM
CC50 [8]: < 1 nM

CCOC(=O)c1cnc2c(CC)cccc2c1O [MMV498479]
IC50 [1, 11]: 0.05 µM
TI (CC50/IC50), therapeutic index [1]: 2.6
EC50 [3, 20]: 1660 nM
CC50 at 48 h [2, 12]: 0.13 µM

CCOc1cc(Cl)c(C(C)NC(=O)c2ccccc2)cc1OCC (stereo not drawn) [MMV665800]
IC50 [1, 11]: 0.49 µM
TI (CC50/IC50), therapeutic index [1]: 1.08
percent_inh @ 5 uM [3, 16]: 96%
EC50 [3, 17]: 1370 nM
EC50 [3, 19]: 875 nM
CC50 at 48 h [2, 12]: 0.53 µM

COc1ccc2c(=O)cc(C(Cl)(Cl)Cl)oc2c1 [MMV665820]
inhibitory activity on T. annulata cell lines [9]: inhibitory
IC50 [1, 11]: 0.15 µM
TI (CC50/IC50), therapeutic index [1]: 1.67
percent_inh @ 5 uM [3, 16]: 94%
EC50 [3, 17]: 520 nM
EC50 [3, 14]: 15000 nM
lowering of relative expression of T. annulata gene TaSP (T. annulata gene TaSP): failed to lower the relative expression of T. annulata gene TaSP by 50%
CC50 at 48 h [2, 12]: 0.25 µM
viability of human foreskin fibroblast control cells [10]: did not impair viability

CCCc1cc(O)c2c3c(c(=O)oc2c1)CN(C)CC3 [MMV665841]
IC50 [1, 11]: 0.36 µM
TI (CC50/IC50), therapeutic index [1]: 1.83
percent_inh @ 5 uM [3, 16]: 97%
EC50 [3, 17]: 146 nM
EC50 [3, 18]: 554 nM
EC50 [3, 19]: 873 nM
CC50 at 48 h [2, 12]: 0.66 µM

CC(=O)c1ccc(NC(=O)CSc2nc(-c3ccccc3Cl)ns2)cc1 [MMV666124]
% inh. At 2.5 uM ([3]; ref MMV data sheets): 88%
EC50 [3, 19]: 1130 nM
Comment: solubility [7]: Solubility issue at 5 uM

CCOC(=O)c1c(C)n(-c2ccc(Cl)cc2)c2ccc(OC(=O)C=Cc3ccccc3)cc12 [MMV666600]
percent_inh @ 5 uM [3, 16]: 97%
EC50 [3, 17]: 216 nM
EC50 [3, 19]: 698 nM

CCOC(=O)C1=C(c2ccccc2)N=c2sc(=Cc3cc(C)n(-c4ccc(F)cc4)c3C)c(=O)n2C1c1cccc(OC)c1OC (stereo not drawn) [MMV666601]
percent_inh @ 5 uM [3, 16]: 94%
EC50 [3, 17]: 154 nM
EC50 [3, 18]: 2320 nM

CCOC(=O)C1=C(C)N=c2sc(=Cc3ccccc3O)c(=O)n2C1c1ccc(OC)c2ccccc12 (stereo not drawn) [MMV666604]
percent_inh @ 5 uM [3, 21]: 97%
EC50 [3, 13]: 1510 nM
EC50 [3, 19]: 1260 nM

O=[N+]([O-])c1ccc(C=NNc2nc3ccccc3[nH]2)cc1 [MMV666607]
percent_inh @ 5 uM [3, 16]: 99%
EC50 [3, 17]: 142 nM
EC50 [3, 18]: 818 nM
EC50 [3, 19]: 283 nM

COc1ccccc1C(=O)ON=C(N)Cc1cccc2ccccc12 [MMV666686]
EC50 [3, 20]: 352 nM

COc1cc(C(=O)ON=C(N)Cc2cccc3ccccc23)cc(OC)c1OC [MMV666687]
EC50 [3, 20]: 280 nM

Cc1cc(C=C2SC(=Nc3ccccc3)N(C3CCCC3)C2=O)c(C)n1-c1ccc(Cl)cc1 [MMV666688]
percent_inh @ 5 uM [3, 16]: 97%
EC50 [3, 17]: 263 nM
EC50 [3, 19]: 876 nM

COc1ccc(Nc2nc(NN=Cc3ccc(O)cc3)nc(Nc3ccc([N+](=O)[O-])cc3)n2)cc1 [MMV666689]
EC50 [3, 20]: 1120 nM

COc1ccc(C=C2SC(=N)N(c3ccccc3OC)C2=O)cc1 [MMV666691]
percent_inh @ 5 uM [3, 16]: 97%
EC50 [3, 17]: 168 nM
EC50 [3, 19]: 300 nM

CCCCCCc1cc2cc(-c3csc(C=Cc4ccccc4)n3)c(=O)oc2cc1O [MMV666692]
EC50 [3, 20]: 970 nM

COc1cccc(C=Cc2nc(=O)c3ccccc3o2)c1OC [MMV666693]
percent_inh @ 5 uM [3, 16]: 96%
EC50 [3, 17]: 23.8 nM
EC50 [3, 19]: 64.4 nM

CN(C)c1ccc(N2C(N)=NC(N)=NC2(C)C)cc1 [MMV667487]
percent_inh @ 2 uM ([3]; 2 uM, MMV Malaria Box sheet, ref MMV data sheets): 95%
EC50 [3, 18]: 18.8 nM
EC50 [3, 14]: 72.8 nM

COc1ccc(CCn2c(=N)c(C(=O)NCc3cccnc3)cc3c(=O)n4cccc(C)c4nc32)cc1 [MMV667488]
EC50 [3, 20]: 1400 nM

CO[C@@H](C(=O)N1Cc2[nH]nc(NC(=O)c3ccc(N4CCN(C)CC4)cc3)c2C1)c1ccccc1 [MMV676600]
TI (CC50/IC50), therapeutic index [1]: <0.001
IC50 [1, 15]: 0.55 µM
CC50 [8]: < 1 nM

CNC(=O)c1nn(C)c2c1C(C)(C)Cc1cnc(Nc3ccc(N4CCN(C)CC4)cc3)nc1-2 [MMV676602]
TI (CC50/IC50), therapeutic index [1]: 0.86
IC50 [1, 15]: 0.35 µM
CC50 [5]: 0.3 µM

Cc1nn(C)c(C)c1NS(=O)(=O)c1c(Cl)cc(-c2ccnc(N3CCNCC3)c2)cc1Cl [MMV688180]
TI (CC50/IC50), therapeutic index [1]: <0.001
IC50 [1, 15]: 0.97 µM
CC50 [5]: < 0.001 µM

N=C(N)Nc1ccc(-c2ccc(-c3ccc(N=C(N)N)c(Cl)c3)o2)cc1Cl [MMV688271]
TI (CC50/IC50), therapeutic index [1]: 0.95
IC50 [1, 15]: 0.59 µM
CC50 [8]: 560 nM

O=C(Nc1ccc(F)c(-c2nc3ncc(-c4ccccc4)cc3[nH]2)c1)N1CCCC1 [MMV688372]
IC50 [1, 15]: 0.61 µM

CC(=O)OCC1OC([S-])C(OC(C)=O)C(OC(C)=O)C1OC(C)=O.CCP(CC)CC.[Au+] (stereo not drawn) [MMV688978, Auranofin, reference compound]
TI (CC50/IC50), therapeutic index [1]: 0.74
IC50 [1, 15]: 0.54 µM
IC50 ([1]; read-out: IC50 (μM) F100TpM, T. parva infected lymphocyte cell line, 48 h compound, 3H-thymidine incorporation, listed as auranofin): < 1 µM
CC50 [5]: 0.4 µM
